Measured values as given in patent publication US7157250B2, “Glutamic acid receptor and utilization thereof” (Ajinomoto Co., Inc., priority 2004, dated 2007).

Legend:
[1] = test system: abdominal cavity branch of vagus nerve; experiment: Afferent activity of the abdominal cavity branch of vagus nerve after intraduodenal administration; assay type: in vivo, rat; settings: 150 mM administered in the duodenum; urethane-anesthetized Wistar rats starved for 18 hours
Description: After starved for 18 hours, rats (Wistar strain, male, 8 to 10 week age: Japan Charles River) were laparotomized under anesthesis with urethane (1 g/kg, i.p.) and about 5 mm of the abdominal cavity branch of vagus nerve was peeled off under stereoscopic microscope. After the cutting of vagus nerve fasciculus, the vagus nerve fasciculus was placed on a small operation stage (8×6 mm) and fat and connective tissue surrounding the vagus nerve fasciculus were carefully peeled off. The terminal fiber on the organ side was placed on a platinum-made bipolar electrode and insulated from the surrounding tissue with liquid paraffin/vaseline (1:1) mixed solution. […]
The neural activity potential was amplified 10,000 folds by a micro potential amplifier (DAM-80 manufactured by WPI) and subjected to A/D conversion (Powerlab 4sp, manufactured by ADI Instruments) after noise was decreased by a Bessel filter (4-pole, […]). […] Simultaneously, while monitoring the amplified signals by an oscilloscope, a noise component is separated from a neural signal component by a window discriminator (DSE-435, manufactured by DiaMedical Corporation), integrated for 5 seconds by a Spike Counter (DSE-335P, manufactured by Nihon Kohden Corporation) and recorded by a chart recorder (WT-465G, manufactured by Nihon Kohden Corporation). […]

[2] = target: T1, mGluR4 variant (Rattus norvegicus, UniProt P31423); experiment: Measurement of function of mGluR4 variant gene by cAMP measurement in variant expressing CHO-K1 cells; assay type: cell-based; settings: 1 mM; for amount of cAMP: in presence of IBMX 100 μM and forskolin 10 μM, n=3
T1 construct: A full-length cDNA of a novel mGluR4 variant was amplified again by a RT-PCR method; V5-His (only in the cloning vector's name); expressed in transfected cells
Description: The prepared vector (pcDNA3.1E) was introduced in CHO-K1 cell (Dainippon Pharmaceutical Co., Ltd.) by using polyFect reagent (Qiagen). After 48 hours, neomycin (600 μg/ml) was added to a culture medium (Modified Eagle Medium (αMEM) containing 10% fetal bovine serum, 100 U/ml penicillin; Nacalai Tesque) and cultivation was continued for 2 to 3 weeks to perform screening of gene-introduced cells.
The variant expressing cells obtained as described above were dispensed to 2.5×10^5 cells/well on a plate (24-well) and cultivated for 20 hours and then used for the measurement of the function of cAMP. Each plate was washed well with Dulbeco's phosphate buffer and incubated for 20 minutes. Thereafter, stimulation was performed with each drug for 10 minutes at 37° C. After the stimulation, the cells were at once treated with ice-cooled 2.5% perchloric acid (PCA) for 30 minutes, neutralized with KOH, and centrifuged to obtain a supernatant (12,000 rpm×10 min, 4° C.). The cAMP content of the supernatant was determined according to a conventional enzyme immunoassay (ELISA) by using a cAMP assay kit (Amersham).

T1 sequence (P31423 with tags, fused parts or gaps): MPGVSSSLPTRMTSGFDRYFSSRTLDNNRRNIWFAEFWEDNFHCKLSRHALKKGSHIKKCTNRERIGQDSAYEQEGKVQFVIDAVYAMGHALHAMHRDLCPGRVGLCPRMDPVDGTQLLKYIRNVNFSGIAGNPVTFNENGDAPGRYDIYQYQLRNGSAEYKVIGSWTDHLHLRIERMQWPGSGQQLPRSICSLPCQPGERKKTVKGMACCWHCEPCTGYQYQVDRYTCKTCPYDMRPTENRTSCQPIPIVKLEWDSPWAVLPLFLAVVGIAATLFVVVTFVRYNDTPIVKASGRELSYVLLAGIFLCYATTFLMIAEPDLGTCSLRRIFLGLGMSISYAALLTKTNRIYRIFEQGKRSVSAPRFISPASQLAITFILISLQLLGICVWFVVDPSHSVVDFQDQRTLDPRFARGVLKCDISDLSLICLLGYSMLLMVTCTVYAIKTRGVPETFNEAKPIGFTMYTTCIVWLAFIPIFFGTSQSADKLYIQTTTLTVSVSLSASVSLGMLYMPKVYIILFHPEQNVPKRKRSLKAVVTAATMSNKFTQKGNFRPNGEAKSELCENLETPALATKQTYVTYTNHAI

SMILES | afferent activity of the abdominal cavity branch of vagus nerve [1] | amount of cAMP [2] | decrease of the amount of cAMP accumulated in the mGluR4 variant expressing cell ([2]; versus sodium chloride (1 mM) added group, IBMX 100 μM and forskolin 10 μM present)
N[C@@H](CCC(=O)[O-])C(=O)[O-].[Na+].[Na+] [MSG, sodium L-glutamate] | increased | – | –
N[C@@H](CCC(=O)O)C(=O)O [glutamic acid] | – | 1,235 fmole | about 19%
[Cl-].[Na+] [sodium chloride] | – | 1,519 fmole | –
